Test results published in patent publication US20110104173A1, “INHIBITION OF DEGRADATION OF EXTRACELLULAR MATRIX” (The Australian National University, priority 2006, published 2011).

Columns and labels:
skin allograft = details: heparins exhibiting some anti-heparanase activity, mice; cited from earlier work
BALB/c islet beta cells = experiment: Islet beta cell survival in vitro after heparitinase treatment; format: cell-based, mouse; details: 5-50 μg/ml heparin in culture, P<0.0001
Text: FIG. 9: Isolated islets dispersed into single cells are predominantly insulin-producing beta cells, as confirmed by immunofluorescence. In contrast to control islet cells that remained intact over a 2 day culture period, beta cells treated for 1 hr with bacterial heparitinases (heparinases) (I+II+III; 0.25 U/ml) died (a). Placement of treated cells on an ECM (produced in vitro by a cell line) was able to largely rescue the beta cells from heparitinase-induced cell death (a).
In vitro studies were undertaken to further validate this concept. Isolated BALB/c islets dispersed into single cells using Dispase (1 mg/ml) consist predominantly of insulin-producing beta cells, as confirmed by immunofluorescence. […] Placement of treated cells on an ECM (produced in vitro by a cell line) was able to largely rescue the beta cells from heparitinase-induced cell death (P<0.0001) (FIG. 9(a)). These findings indicate that islet beta cells need cell-associated HS to survive. […] Islet beta cells therefore require cell-associated HS to remain viable and healthy.

[1] = system: NODscid islet isografts in diabetic NOD/Lt female mice; experiment: NODscid islet isografts in diabetic NOD/Lt mice, recurrence of autoimmune disease; format: in vivo, mouse
Text: FIG. 8: (a) PI-88 therapy prevents disease recurrence in islet isografts. Isografts of 450-500 female NODscid islets transplanted beneath the kidney capsule of diabetic NOD/Lt female mice return non-fasting blood glucose levels to the normal range (shaded region defines the normal range). Without further treatment in a control recipient (circles), hyperglycemia returned from day 3. In contrast, an NODscid islet isograft maintains normoglycemia for up to 14 days in a diabetic NOD mouse treated with PI-88 (10 mg/kg/day i.p.) from day 3 (squares).
Consequently in vivo treatment of transplanted mice with PI-88 should prevent islet allograft rejection, disease recurrence in islet isografts (see FIG. 8) and facilitate the survival and function of islet allografts in diabetic NOD/Lt mice. To assess whether PI-88 therapy is graft-protective, NODscid islets were transplanted to autoimmune diabetic NOD mice 400-500 islets/graft. The mice were treated with PI-88 (10 mg/kg/day) i.p. from day 3 post-transplant (after graft revascularisation). Control transplanted mice were treated with saline. Graft function was monitored by measurement of non-fasting blood glucose levels (using a glucometer (MediSense 2)) 2-3×/week.

[2] = system: prediabetic adult female NOD/Lt mice; experiment: PI-88 treatment of prediabetic NOD/Lt mice, onset of autoimmune diabetes; format: in vivo, mouse; details: PI-88 10 mg/kg/day i.p. from 10.5 weeks of age, vs saline controls
Text: FIG. 3: PI-88 treatment prevents development of autoimmune diabetes in NOD/Lt mice. […] The incidence of diabetes in the holding female NOD/Lt mouse colony of the inventors is 60%.
Studies conducted by the inventors have shown that heparanase transcripts are increased 7-fold in prediabetic and diabetes-onset NOD mice, compared to neonatal NOD mice; only background levels were detected in normal CBA/H mice (see TABLE 1).

[3] = system: lipopolysaccharride (LPS)-induced inflammation; details: in vivo treatment, rodents; cited from earlier work
[4] = system: BALB/c (H-2d) islet allografts in CBA/H (H-2k) mice; experiment: BALB/c islet allograft survival in CBA/H mice; format: in vivo, mouse; details: 7 days post-transplant, PI-88 treated recipient vs control
Text: HS plays a critical role in maintaining the integrity and survival of islets and islet beta cells. […] It is therefore possible that heparanase also plays an important role in the immunological destruction of islet allografts (even in the absence of autoimmune attack). […] Heparanase inhibitors therefore represent an anti-rejection strategy for islet transplants in allogeneic hosts and have the capacity to protect grafted islets from both alloimmune and autoimmune attack.

Substance | skin allograft survival (skin allograft) | rescue of heparitinase-treated beta cells from cell death (BALB/c islet beta cells) | time normoglycemia (non-fasting blood glucose) maintained by islet isograft ([1]; PI-88 10 mg/kg/day i.p. from day 3 post-transplant, control hyperglycemic from day 3) | isograft histology at harvest (hematoxylin and eosin) ([1]; PI-88-treated mouse, control isograft showed aggressive autoimmune destruction) | onset of clinical diabetes [2] | LPS-induced inflammation [3] | leukocyte behaviour by intra-vital microscopy [3] | islet allograft histology [4]
heparin | prolonged skin allograft survival | efficiently rescued | – | – | – | – | – | –
PI-88 | – | – | up to 14 days | revascularised islets | prevents the onset of clinical diabetes in mice up to 24 weeks of age | prevented | leukocyte rolling and adherence to the vascular BM but no extravasation | better preservation of the engrafted allogeneic islets
